Experimental data: ChEMBL document CHEMBL2406948, “Skeletal rearrangement of seven-membered iminosugars: synthesis of (-)-adenophorine, (-)-1-epi-adenophorine and derivatives and evaluation as glycosidase inhibitors” (Bioorg Med Chem, 2013)

What was measured:
[1] = molecular target: T1, Glucosylceramidase (Bos taurus) (UniProt Q2KHZ8); experiment: Inhibition of bovine liver beta-glucosidase at 1000 uM
T1 sequence (whole entry): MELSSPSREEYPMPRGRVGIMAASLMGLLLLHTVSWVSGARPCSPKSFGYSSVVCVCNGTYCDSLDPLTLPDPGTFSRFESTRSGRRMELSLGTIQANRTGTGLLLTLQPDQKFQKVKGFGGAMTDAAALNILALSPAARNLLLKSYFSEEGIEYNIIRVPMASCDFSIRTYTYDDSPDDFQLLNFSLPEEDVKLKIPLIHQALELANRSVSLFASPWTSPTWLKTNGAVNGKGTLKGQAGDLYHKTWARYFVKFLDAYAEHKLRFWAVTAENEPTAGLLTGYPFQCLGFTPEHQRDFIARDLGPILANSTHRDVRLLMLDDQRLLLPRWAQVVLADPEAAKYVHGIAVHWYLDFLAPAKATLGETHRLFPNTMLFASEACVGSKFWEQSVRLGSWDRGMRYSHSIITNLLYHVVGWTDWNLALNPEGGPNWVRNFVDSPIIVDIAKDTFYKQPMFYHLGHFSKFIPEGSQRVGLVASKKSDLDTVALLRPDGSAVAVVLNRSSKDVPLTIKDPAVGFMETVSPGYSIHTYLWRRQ

[2] = molecular target: T2, Tissue alpha-L-fucosidase (Bos taurus, UniProt Q2KIM0); experiment: Inhibition of bovine kidney alpha-L-fucosidase
T2 sequence (Q2KIM0 whole entry): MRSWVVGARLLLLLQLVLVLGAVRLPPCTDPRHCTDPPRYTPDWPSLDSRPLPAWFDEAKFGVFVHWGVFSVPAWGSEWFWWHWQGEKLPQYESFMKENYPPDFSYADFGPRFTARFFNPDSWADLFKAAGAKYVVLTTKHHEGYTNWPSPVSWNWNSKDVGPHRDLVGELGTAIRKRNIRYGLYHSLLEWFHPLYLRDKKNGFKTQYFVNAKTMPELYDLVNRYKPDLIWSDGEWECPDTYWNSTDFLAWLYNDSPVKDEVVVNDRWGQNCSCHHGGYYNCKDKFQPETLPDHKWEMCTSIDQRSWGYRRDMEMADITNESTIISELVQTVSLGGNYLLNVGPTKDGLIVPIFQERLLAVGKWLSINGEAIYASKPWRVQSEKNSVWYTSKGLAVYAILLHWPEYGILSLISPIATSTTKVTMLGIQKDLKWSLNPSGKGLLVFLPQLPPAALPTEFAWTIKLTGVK

[3] = molecular target: T3, Beta-galactosidase (Bos taurus) (UniProt Q58D55); experiment: Inhibition of bovine liver beta-galactosidase at 1000 uM
T3 sequence (whole entry): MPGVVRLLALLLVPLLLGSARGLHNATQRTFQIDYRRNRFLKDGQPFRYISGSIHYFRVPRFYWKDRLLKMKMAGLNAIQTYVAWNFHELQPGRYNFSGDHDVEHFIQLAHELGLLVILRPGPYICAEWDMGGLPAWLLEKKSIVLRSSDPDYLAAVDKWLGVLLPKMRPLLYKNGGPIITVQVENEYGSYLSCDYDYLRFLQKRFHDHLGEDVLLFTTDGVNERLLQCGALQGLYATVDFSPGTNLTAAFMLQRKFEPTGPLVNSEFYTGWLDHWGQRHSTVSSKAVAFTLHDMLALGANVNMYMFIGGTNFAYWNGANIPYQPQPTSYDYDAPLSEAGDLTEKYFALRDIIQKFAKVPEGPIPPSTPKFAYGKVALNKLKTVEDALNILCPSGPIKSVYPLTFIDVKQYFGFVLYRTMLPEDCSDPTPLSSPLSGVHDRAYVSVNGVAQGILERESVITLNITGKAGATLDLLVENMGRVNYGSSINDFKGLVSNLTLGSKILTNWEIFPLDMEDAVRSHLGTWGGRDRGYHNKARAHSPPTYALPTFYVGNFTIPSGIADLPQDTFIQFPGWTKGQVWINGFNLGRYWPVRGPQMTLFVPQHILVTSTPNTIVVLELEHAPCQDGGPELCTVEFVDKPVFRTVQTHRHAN

[4] = tested on: Penicillium decumbens; experiment: Inhibition of Penicillium decumbens alpha-L-rhamnosidase at 1000 uM
[5] = Inhibition of Escherichia coli beta-glucuronidase
[6] = molecular target: T4, Tissue alpha-L-fucosidase (Bos taurus) (UniProt Q2KIM0); experiment: Inhibition of bovine kidney alpha-L-fucosidase at 1000 uM
T4 sequence (whole entry): T2 sequence (Q2KIM0 whole entry)

[7] = Inhibition of Penicillium decumbens alpha-L-rhamnosidase
[8] = molecular target: T5, Beta-galactosidase (Bos taurus, UniProt Q58D55); experiment: Inhibition of bovine liver beta-galactosidase
T5 sequence (Q58D55 whole entry): T3 sequence (whole entry)

[9] = tested on: Escherichia coli; experiment: Inhibition of Escherichia coli beta-glucuronidase at 1000 uM

| SMILES | inhibition [1] | IC50 [2] | inhibition [3] | inhibition [4] | IC50 [5] | inhibition [6] | IC50 [7] | IC50 [8] | inhibition [9] |
| --- | --- | --- | --- | --- | --- | --- | --- | --- | --- |
| CCC[C@@H]1N[C@@H](CO)[C@@H](O)[C@H](O)[C@H]1O | 13.2% | 713 µM | 26.8% | 13% | 586 µM |  |  |  |  |
| CC[C@@H]1NC[C@@H](O)[C@@H](O)[C@H](O)[C@H]1O |  |  |  |  |  | 37.2% | 231 µM | 526 µM | 18.1% |
| CC[C@@H]1N[C@@H](CO)[C@@H](O)[C@H](O)[C@H]1O | 12.6% | 72 µM | 6.5% | 37.7% |  |  |  |  | 7.2% |
| CC[C@H]1N[C@@H](CO)[C@@H](O)[C@H](O)[C@H]1O | 32.8% | 208 µM | 20.3% | 2.4% |  |  |  |  | 11% |
| CC[C@H]1NC[C@@H](O)[C@@H](O)[C@H](O)[C@H]1O | 24.6% |  | 12.1% | 5.3% |  | 36.7% |  |  | 3.1% |
| CC[C@@H]1N[C@H](CC)[C@H](O)[C@@H](O)[C@@H]1O | 21.6% |  | 9.7% | 0% |  | 0% |  |  | 12.9% |
